These results are taken from PMC7714403 (JCI Insight, 2020).

Where two headings read alike, the source gives them in different places.

Common to all, as to test: KiNativ, MOLM13 live cells
Type in all cases: cell-based

One experiment has as its target BARK1 (Homo sapiens, UniProt P25098). As to conditions: MOLM-13; 100 nM, 2 hours; Lys2; read-out: Inhibition vs DMSO. On the procedure:
(§1) Samples were analyzed by KiNativ in situ kinase profiling by ActivX Biosciences.

The target in another experiment is CDK9 (Homo sapiens, UniProt P50750). As to conditions: MOLM-13; 100 nM, 2 hours; ATP Loop; read-out: Inhibition vs DMSO. On the procedure: as §1
The target in a further experiment is FER (Homo sapiens, UniProt P16591). The following applies: MOLM-13, 2 h, 100 nM. On the procedure:
as §1

The next experiment addresses GSK3A (Homo sapiens, UniProt P49840). The following applies: MOLM-13; 100 nM, 2 hours; Lys2; read-out: Inhibition vs DMSO. On the procedure:
as §1

For a further experiment, the target named is T1, MAP2K6 (Homo sapiens, UniProt P52564).
T1 sequence (P52564 1-334): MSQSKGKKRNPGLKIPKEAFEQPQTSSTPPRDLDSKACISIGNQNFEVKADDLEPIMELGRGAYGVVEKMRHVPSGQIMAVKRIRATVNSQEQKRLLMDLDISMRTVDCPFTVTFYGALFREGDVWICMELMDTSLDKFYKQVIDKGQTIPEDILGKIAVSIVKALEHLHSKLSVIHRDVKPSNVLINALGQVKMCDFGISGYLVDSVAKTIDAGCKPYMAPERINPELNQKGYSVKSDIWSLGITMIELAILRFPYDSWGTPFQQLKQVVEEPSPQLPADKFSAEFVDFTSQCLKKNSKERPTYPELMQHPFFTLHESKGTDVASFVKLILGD
As to conditions: MOLM-13, 2 h, 100 nM. On the procedure:
as §1

Another experiment deals with MAP3K1 (Homo sapiens, UniProt Q13233). As to conditions: MOLM-13; 100 nM, 2 hours; Lys2; read-out: Inhibition vs DMSO. The protocol:
as §1

The target of another experiment is MAP4K3 (Homo sapiens, UniProt Q8IVH8). As to conditions: 100 nM, 2 hours; Lys2. On the procedure: as §1
The target of the next experiment is MLK4 (Homo sapiens, UniProt Q5TCX8). The following applies: MOLM-13; 100 nM, 2 hours; Lys2; read-out: Inhibition vs DMSO. On the procedure:
as §1

A further experiment deals with MST1 (Homo sapiens, UniProt Q13043). The following applies: 100 nM, 2 hours; Lys1. The protocol:
as §1

The next experiment addresses T2, TLK1 (Homo sapiens, UniProt Q9UKI8).
T2 sequence (Q9UKI8 1-766): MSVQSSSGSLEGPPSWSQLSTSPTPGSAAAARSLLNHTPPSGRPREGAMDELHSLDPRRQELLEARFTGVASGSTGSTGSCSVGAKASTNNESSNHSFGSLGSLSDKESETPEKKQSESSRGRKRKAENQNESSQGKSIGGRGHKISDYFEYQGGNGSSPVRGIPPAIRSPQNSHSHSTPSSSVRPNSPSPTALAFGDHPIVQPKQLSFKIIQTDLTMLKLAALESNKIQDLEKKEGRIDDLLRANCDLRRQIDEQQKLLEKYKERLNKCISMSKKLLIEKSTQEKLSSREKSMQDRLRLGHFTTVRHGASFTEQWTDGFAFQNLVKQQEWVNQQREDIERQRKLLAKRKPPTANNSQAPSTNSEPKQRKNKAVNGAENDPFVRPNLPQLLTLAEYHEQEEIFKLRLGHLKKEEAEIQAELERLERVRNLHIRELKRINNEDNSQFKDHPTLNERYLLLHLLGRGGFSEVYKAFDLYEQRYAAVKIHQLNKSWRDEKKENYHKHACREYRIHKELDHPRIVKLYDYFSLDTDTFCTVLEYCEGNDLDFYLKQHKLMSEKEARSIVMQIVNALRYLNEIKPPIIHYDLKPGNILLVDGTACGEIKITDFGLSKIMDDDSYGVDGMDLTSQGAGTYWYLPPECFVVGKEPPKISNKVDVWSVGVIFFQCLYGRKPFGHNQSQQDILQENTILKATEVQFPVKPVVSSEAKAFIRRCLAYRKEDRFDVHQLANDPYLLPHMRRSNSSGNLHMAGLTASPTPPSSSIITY
The following applies: MOLM-13; 100 nM, 2 hours; Lys2; read-out: Inhibition vs DMSO. On the procedure:
as §1

The next experiment deals with TLK2 (Homo sapiens, UniProt Q86UE8). As to conditions: MOLM-13; 100 nM, 2 hours; Lys2; read-out: Inhibition vs DMSO. The protocol: as §1
The target of a further experiment is T3, ULK1 (Homo sapiens, UniProt O75385).
T3 sequence (O75385 1-1050): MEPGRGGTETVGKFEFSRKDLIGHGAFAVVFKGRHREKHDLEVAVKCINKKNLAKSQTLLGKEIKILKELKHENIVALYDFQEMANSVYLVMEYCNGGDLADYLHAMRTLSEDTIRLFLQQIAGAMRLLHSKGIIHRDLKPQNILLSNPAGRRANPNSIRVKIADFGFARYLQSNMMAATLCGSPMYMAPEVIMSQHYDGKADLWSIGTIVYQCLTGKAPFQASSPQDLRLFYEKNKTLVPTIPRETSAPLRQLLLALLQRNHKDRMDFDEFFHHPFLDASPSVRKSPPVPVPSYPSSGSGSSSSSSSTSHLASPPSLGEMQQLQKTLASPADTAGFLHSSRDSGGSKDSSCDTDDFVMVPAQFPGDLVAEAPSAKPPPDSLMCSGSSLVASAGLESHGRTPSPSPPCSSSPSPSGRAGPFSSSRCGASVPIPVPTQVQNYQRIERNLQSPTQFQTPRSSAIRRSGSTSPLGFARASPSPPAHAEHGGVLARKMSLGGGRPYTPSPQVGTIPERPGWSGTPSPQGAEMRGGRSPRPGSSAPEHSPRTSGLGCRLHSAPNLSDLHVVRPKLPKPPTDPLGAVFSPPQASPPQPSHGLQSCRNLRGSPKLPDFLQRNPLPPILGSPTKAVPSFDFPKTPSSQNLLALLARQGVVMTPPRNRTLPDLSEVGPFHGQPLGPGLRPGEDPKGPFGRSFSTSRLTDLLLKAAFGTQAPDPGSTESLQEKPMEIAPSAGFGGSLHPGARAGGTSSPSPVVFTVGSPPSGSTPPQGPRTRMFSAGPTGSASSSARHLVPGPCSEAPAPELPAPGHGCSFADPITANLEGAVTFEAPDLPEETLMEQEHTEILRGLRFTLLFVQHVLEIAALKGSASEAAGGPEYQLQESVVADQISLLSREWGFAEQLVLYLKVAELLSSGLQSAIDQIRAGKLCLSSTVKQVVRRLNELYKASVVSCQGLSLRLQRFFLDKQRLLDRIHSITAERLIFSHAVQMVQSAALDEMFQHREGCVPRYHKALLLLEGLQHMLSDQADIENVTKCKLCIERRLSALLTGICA
The following applies: 100 nM, 2 hours; Lys2. On the procedure:
as §1

The mark [1] stands for this setting: Lys1, read-out: Inhibition vs DMSO.

Sequence of FER (P16591 whole entry): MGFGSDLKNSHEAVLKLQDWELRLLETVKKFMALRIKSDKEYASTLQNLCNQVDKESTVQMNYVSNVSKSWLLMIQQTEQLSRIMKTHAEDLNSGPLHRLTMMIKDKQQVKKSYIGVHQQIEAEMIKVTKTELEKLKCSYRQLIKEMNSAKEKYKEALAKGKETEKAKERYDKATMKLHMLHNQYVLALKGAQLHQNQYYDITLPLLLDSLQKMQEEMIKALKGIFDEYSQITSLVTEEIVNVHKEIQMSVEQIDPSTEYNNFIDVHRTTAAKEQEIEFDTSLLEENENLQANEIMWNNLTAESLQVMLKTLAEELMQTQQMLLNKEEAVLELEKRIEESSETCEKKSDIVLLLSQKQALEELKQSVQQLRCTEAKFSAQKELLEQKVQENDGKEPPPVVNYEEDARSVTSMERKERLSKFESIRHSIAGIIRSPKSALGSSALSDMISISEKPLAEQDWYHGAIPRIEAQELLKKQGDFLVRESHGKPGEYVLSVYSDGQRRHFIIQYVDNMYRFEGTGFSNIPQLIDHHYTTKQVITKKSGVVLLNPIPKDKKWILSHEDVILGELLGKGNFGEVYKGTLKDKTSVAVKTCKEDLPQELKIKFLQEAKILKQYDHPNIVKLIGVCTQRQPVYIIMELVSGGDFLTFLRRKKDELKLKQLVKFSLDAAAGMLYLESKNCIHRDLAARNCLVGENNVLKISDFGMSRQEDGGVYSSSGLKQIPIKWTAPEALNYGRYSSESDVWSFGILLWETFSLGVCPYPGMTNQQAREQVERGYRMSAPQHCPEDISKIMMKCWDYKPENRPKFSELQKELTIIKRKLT
Sequence of CDK9 (P50750 whole entry): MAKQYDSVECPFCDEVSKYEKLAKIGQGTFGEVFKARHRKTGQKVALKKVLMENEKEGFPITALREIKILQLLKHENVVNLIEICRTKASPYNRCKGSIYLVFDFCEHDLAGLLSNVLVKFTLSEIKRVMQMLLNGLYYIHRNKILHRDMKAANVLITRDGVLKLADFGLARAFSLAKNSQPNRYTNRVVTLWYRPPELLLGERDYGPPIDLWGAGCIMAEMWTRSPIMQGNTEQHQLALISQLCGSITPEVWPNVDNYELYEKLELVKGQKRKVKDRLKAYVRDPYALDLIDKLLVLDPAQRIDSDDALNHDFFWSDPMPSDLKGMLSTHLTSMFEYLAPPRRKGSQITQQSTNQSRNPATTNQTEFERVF
Sequence of CDK9 (O60563 whole entry partner): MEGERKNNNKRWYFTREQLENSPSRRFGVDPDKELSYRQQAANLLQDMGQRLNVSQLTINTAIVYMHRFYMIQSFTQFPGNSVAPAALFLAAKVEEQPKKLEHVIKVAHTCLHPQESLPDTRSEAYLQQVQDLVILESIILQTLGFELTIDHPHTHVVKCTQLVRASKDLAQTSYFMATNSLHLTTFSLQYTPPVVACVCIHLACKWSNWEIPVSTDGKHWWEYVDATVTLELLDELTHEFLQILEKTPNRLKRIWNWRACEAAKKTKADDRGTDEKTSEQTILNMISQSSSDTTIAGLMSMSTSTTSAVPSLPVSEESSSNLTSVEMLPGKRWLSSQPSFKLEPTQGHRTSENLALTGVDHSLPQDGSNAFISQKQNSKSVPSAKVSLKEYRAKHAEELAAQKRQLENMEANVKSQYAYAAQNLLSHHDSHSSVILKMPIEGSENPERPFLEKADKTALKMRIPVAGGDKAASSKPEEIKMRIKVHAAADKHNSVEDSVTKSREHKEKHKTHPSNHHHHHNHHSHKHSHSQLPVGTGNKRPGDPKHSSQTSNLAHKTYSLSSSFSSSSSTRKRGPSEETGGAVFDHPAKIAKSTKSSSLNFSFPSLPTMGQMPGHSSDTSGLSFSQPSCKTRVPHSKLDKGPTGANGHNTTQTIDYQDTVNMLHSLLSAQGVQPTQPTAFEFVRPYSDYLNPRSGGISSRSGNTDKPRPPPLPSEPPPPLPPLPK
Sequence of MLK4 (Q5TCX8 whole entry): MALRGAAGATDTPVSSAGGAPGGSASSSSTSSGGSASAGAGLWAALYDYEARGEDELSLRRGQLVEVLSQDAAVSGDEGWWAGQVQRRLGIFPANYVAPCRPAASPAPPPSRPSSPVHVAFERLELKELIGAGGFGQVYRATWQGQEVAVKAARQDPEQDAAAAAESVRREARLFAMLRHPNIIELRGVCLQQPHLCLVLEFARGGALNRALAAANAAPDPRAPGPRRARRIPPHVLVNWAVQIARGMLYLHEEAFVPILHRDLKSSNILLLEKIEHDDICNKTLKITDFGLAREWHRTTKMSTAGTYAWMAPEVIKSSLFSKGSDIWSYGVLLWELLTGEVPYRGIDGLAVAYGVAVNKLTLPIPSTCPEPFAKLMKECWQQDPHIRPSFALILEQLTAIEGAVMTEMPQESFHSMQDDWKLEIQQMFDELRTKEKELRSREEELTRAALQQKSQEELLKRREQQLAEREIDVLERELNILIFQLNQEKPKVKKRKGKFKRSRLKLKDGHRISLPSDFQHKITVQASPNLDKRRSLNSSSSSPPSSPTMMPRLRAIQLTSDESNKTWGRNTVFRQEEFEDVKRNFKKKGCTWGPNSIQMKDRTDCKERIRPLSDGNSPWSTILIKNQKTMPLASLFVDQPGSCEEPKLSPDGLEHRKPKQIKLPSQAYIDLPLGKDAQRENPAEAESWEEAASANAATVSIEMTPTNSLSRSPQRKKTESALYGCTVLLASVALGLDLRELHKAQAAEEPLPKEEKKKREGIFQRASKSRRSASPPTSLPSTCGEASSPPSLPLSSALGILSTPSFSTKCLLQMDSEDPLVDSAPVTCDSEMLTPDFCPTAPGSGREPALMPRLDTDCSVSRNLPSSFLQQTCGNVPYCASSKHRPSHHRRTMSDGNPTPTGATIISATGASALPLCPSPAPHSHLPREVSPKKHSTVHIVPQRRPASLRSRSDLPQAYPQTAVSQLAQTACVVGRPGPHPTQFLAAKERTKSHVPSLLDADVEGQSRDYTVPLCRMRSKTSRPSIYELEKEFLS
Sequence of GSK3A (P49840 whole entry): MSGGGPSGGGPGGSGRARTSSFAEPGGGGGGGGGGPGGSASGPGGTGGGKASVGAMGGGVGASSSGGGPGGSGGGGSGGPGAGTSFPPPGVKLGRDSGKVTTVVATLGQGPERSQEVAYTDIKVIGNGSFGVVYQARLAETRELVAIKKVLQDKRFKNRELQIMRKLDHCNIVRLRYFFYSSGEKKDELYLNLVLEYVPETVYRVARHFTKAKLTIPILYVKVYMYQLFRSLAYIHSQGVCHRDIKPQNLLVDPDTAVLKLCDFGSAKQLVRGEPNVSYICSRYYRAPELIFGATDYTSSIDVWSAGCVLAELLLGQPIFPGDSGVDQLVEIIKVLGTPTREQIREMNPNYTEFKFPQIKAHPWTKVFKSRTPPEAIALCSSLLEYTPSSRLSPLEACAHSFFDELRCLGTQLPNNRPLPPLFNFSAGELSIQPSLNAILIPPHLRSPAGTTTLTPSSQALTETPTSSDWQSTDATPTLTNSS
Sequence of MAP4K3 (Q8IVH8 whole entry): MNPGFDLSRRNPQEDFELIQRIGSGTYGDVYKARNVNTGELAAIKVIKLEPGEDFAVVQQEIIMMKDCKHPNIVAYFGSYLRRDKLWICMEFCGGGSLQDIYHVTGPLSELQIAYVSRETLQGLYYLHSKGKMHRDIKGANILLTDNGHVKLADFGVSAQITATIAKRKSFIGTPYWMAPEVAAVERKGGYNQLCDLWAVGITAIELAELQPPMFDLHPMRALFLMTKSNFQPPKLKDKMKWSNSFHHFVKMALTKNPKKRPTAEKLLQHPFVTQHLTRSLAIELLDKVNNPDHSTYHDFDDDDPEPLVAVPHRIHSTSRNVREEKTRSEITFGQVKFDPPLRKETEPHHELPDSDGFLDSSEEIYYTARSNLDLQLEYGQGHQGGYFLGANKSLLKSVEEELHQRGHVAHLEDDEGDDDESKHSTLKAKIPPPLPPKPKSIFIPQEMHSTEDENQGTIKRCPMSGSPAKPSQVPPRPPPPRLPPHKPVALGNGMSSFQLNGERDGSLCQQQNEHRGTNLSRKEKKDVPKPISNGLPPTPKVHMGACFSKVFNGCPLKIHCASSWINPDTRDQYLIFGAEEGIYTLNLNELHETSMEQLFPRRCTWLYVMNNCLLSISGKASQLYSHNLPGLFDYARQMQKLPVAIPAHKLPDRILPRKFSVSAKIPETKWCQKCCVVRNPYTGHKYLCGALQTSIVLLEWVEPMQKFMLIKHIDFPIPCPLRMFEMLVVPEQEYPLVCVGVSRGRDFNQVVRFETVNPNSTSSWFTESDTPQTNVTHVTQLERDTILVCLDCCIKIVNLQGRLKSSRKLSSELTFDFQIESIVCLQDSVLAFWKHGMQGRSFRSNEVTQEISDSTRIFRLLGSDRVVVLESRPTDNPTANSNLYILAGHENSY
Sequence of BARK1 (P25098 whole entry): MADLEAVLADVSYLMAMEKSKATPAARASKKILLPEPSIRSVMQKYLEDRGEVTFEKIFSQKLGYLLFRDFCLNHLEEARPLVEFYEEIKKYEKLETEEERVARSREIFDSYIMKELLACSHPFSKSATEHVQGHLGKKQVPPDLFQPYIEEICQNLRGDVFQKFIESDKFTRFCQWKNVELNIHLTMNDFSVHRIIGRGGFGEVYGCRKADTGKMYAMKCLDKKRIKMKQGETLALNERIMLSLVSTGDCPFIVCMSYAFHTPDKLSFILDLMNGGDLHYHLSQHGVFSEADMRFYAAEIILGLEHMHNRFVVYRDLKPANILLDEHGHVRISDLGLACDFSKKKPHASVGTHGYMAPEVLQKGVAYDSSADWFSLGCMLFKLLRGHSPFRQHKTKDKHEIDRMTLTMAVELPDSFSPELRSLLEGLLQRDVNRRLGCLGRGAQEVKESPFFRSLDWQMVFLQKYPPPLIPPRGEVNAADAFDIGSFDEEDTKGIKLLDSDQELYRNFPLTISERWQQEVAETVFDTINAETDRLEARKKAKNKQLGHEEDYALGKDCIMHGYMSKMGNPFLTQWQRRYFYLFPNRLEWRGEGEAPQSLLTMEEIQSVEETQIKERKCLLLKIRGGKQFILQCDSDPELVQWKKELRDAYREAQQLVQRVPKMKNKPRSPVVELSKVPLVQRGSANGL

Regarding `CN1CCN(Cc2ccc(Nc3ncc(Cl)c(Nc4ccccc4S(=O)(=O)N(C)C)n3)cc2)CC1` [TP-0903], the inhibition at 0.1 µM at BARK1 is -13.9%; on CDK9 it was -34.4%; on FER (Activation Loop, read-out: Inhibition vs DMSO) it was 43.4%; on FER (setting [1]), 19.2%; on GSK3A, -8.9%; on MAP2K6 (setting [1]), -2.4%. Also, the inhibition at 0.1 µM is -11.9% at MAP2K6 (Lys2, read-out: Inhibition vs DMSO); 55.7% on MAP3K1; -13.5% at MLK4; 16% on TLK1; 18% at TLK2. Moreover, the “Inhibition vs DMSO” value at MAP4K3 amounted to 45.4%; at MST1, 42.4%; at ULK1 it was 45.8%.
